Test results published in PMC12399242 (Acta Pharmaceutica Sinica. B, 2025).
Structures can show the parent of a compound that is named as a salt. Where two headings read alike, the source gives them in different places.

Key:
[1] = test system: HIV-1 K103N; assay: Antiviral activity against HIV-1 mutant K103N in MT-4 cells; format: cell-based
[2] = test system: HIV-1 (IIIB); assay: microbe, parasite or virus in culture; format: cell-based; details: for EC50: mean ± SD, n ≥ 3; for SI (IIIB): selectivity index, ratio CC50/EC50
Description: (§1) Inspired by our previous research on heteroaromatic-biphenyl-DAPYs[15], the 4-cyanophenyl group on the biphenyl moiety was replaced with a privileged 4-pyridyl group for further evaluation.

[3] = test system: HIV-1 L100I; assay: Antiviral activity against HIV-1 mutant L100I in MT-4 cells; format: cell-based
[4] = test system: HIV-1 F227L + V106A; assay: microbe, parasite or virus in culture; format: cell-based
[5] = test system: HIV-1 Y181C; assay: Antiviral activity against HIV-1 mutant Y181C in MT-4 cells; format: cell-based
[6] = target: WT HIV-1 RT (Human immunodeficiency virus type 1 group M subtype B, UniProt P03366); assay: Inhibition of WT HIV-1 RT polymerase activity
Protocol: The anti-HIV-1 activity of A1–A24 and B1–B22 at the cellular or enzyme level were evaluated following our previously reported method[15].

[7] = test system: HIV-1 K103N + Y181C (RES056); assay: Antiviral activity against HIV-1 double mutant K103N + Y181C (RES056) in MT-4 cells; format: cell-based
[8] = test system: HIV-1 Y188L; assay: Antiviral activity against HIV-1 mutant Y188L in MT-4 cells; format: cell-based
[9] = test system: HIV-1 E138K; assay: Antiviral activity against HIV-1 mutant E138K in MT-4 cells; format: cell-based
[10] = test system: MT-4 cells; assay: in vitro
Description: as §1

[11] = in vitro; details: human, CC50
Description: as §1

[12] = target: T1, CYP2D6 (Homo sapiens, UniProt P10635); assay: CYP enzyme inhibition assay, CYP2D6; format: in vitro ADME; details: IC50 CYP2D6, human liver microsomes
T1 construct: An incubation system of human liver microsomes (20 μL, 1.5 mg/mL); from tissue; host or cells: human liver microsomes
Protocol: An incubation system of human liver microsomes (20 μL, 1.5 mg/mL), 20 μL probe substrates, and 50 μL test compound in Tris (0.1 mol/L) was pre-incubated at 37 °C for 10 min, and then initiated by adding NADPH (10 μL, 10 mmol/L). The system was incubated for another 15 min and subsequently terminated by 100 μL MeCN containing internal standard (propranolol, nadolol). Finally, the sample was centrifugated to obtain the supernatant for LC‒MS/MS analysis.

[13] = comparison values; cited from earlier work
[14] = human liver microsomes; cited from earlier work
[15] = test system: MT-4 cells; details: cited from earlier work
[16] = test system: HIV-1 (IIIB); details: earlier compounds of Fig. 1 / introduction, cited from earlier work; for EC50: WT HIV-1
[17] = test system: HIV-1 K103N + Y181C (RES056); details: cited from earlier work
[18] = test system: HIV-1 F227L + V106A; details: cited from earlier work
[19] = test system: HIV-1 Y188L; details: cited from earlier work
[20] = Human immunodeficiency virus 1, MT4, read-out: EC50 K103N
[21] = Human immunodeficiency virus 1, IIIB, MT4, WT HIV-1, protection of MT-4 cells against HIV-induced cytopathogenicity
[22] = WT HIV-1, protection of MT-4 cells against HIV-induced cytopathogenicity
[23] = Human immunodeficiency virus 1, MT4, read-out: EC50 L100I
[24] = Human immunodeficiency virus 1, MT4, read-out: EC50 F227L + V106A
[25] = Human immunodeficiency virus 1, MT4, read-out: EC50 Y181C
[26] = Human immunodeficiency virus 1, MT4, read-out: EC50 K103N + Y181C
[27] = Human immunodeficiency virus 1, MT4, read-out: EC50 Y188L
[28] = Human immunodeficiency virus 1, MT4, read-out: EC50 E138K
[29] = MT-4 cells, mean ± SD, n ≥ 3, read-out: EC50 K103N
[30] = MT-4 cells, mean ± SD, n ≥ 3, read-out: EC50 L100I
[31] = MT-4 cells, mean ± SD, n ≥ 3, read-out: EC50 F227L + V106A
[32] = MT-4 cells, mean ± SD, n ≥ 3, read-out: EC50 Y181C
[33] = RES056, MT-4 cells, mean ± SD, n ≥ 3, read-out: EC50 K103N + Y181C
[34] = MT-4 cells, mean ± SD, n ≥ 3, read-out: EC50 Y188L
[35] = MT-4 cells, mean ± SD, n ≥ 3, read-out: EC50 E138K
[36] = uninfected MT-4 cells, mean ± SD, n ≥ 3
[37] = earlier compounds of Fig. 1 / introduction

T1 sequence (P10635 whole entry): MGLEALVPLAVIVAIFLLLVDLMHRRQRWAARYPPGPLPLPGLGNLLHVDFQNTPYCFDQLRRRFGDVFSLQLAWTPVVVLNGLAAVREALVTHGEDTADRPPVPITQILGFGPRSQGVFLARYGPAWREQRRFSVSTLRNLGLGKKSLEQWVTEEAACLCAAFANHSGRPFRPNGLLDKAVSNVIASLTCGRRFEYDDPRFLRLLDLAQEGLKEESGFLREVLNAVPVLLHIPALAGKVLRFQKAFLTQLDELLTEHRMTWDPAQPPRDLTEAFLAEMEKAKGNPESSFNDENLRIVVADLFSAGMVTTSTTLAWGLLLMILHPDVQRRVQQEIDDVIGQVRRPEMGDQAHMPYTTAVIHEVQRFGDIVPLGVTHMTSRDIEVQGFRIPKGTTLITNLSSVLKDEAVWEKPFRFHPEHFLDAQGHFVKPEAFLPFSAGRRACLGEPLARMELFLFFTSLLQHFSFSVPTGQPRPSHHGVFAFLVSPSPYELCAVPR

N#Cc1ccc(Nc2ncc(F)c(Oc3ccc(-c4ccc(C#N)cc4)cc3F)n2)cc1 [A1, 4′-((2-((4-Cyanophenyl)amino)-5-fluoropyrimidin-4-yl)oxy)-3′-fluoro-[1,1′-biphenyl]-4-carbonitrile]
EC50 [1, 20]: 52 ± 42 nM
EC50 [2, 21]: ≤ 5.3 nM
EC50 [2, 22]: 4.2 ± 1.4 nM
SI (IIIB) [2]: >10,870
EC50 [3, 23]: 174 ± 49 nM
EC50 [4, 24]: > 47000 nM
EC50 [5, 25]: 306 ± 117 nM
IC50 [6]: 54 ± 9.4 nM
EC50 [7, 26]: > 47000 nM
EC50 [8, 27]: > 47000 nM
EC50 [9, 28]: 28 ± 12 nM
CC50 ([10]; human): > 47000 nM
CC50 [11]: > 45000 nM

COc1cc(-c2ccc(C#N)cc2)ccc1Oc1nc(Nc2ccc(C#N)cc2)ncc1F [A4, 4′-((2-((4-Cyanophenyl)amino)-5-fluoropyrimidin-4-yl)oxy)-3′-methoxy-[1,1′-biphenyl]-4-carbonitrile]
EC50 [1, 20]: 9.4 ± 2.7 nM
EC50 [2, 21]: ≤ 5.3 nM
EC50 [2, 22]: 3 ± 1.1 nM
SI (IIIB) [2]: >16,000
EC50 [3, 23]: 41 ± 25 nM
EC50 [4, 24]: ≥ 1600 nM
EC50 [5, 25]: 48 ± 14 nM
IC50 [6]: 46 ± 4.6 nM
EC50 [7, 26]: > 45700 nM
EC50 [8, 27]: 1370 ± 206 nM
EC50 [9, 28]: 7.8 ± 2.3 nM
CC50 ([10]; human): > 46000 nM
CC50 [11]: > 45000 nM

N#Cc1ccc(Nc2ncc(F)c(Nc3ccc(-c4ccc(C#N)cc4)cc3F)n2)cc1 [A7, 4′-((2-((4-Cyanophenyl)amino)-5-fluoropyrimidin-4-yl)amino)-3′-fluoro-[1,1′-biphenyl]-4-carbonitrile]
EC50 [1, 20]: 68 ± 38 nM
SI (IIIB) [2]: >25,806
EC50 [3, 23]: 5440 ± 2400 nM
EC50 [4, 24]: > 47100 nM
EC50 [5, 25]: 259 ± 165 nM
IC50 [6]: 28 ± 4.7 nM
EC50 [7, 26]: > 47100 nM
EC50 [8, 27]: > 47100 nM
EC50 [9, 28]: 35 ± 17 nM
CC50 ([10]; human): > 47000 nM
CC50 [11]: > 45000 nM

N#Cc1ccc(Nc2ncc(F)c(Nc3c(F)cc(-c4ccc(C#N)cc4)cc3F)n2)cc1 [A11, 4′-((2-((4-Cyanophenyl)amino)-5-fluoropyrimidin-4-yl)amino)-3′,5′-difluoro-[1,1′-biphenyl]-4-carbonitrile]
EC50 [1, 20]: 5 ± 1.1 nM
SI (IIIB) [2]: >40,000
EC50 [3, 23]: 10 ± 2.9 nM
EC50 [4, 24]: > 45200 nM
EC50 [5, 25]: 8.1 ± 2 nM
IC50 [6]: 27 ± 2.3 nM
EC50 [7, 26]: > 45200 nM
EC50 [8, 27]: > 45200 nM
EC50 [9, 28]: 2.5 ± 0.7 nM
CC50 [11]: > 45000 nM

COc1cc(-c2ccncc2)ccc1Oc1nc(Nc2ccc(C#N)cc2)ncc1F [A16, 4-((5-Fluoro-4-(2-methoxy-4-(pyridin-4-yl)phenoxy)pyrimidin-2-yl)amino)benzonitrile]
EC50 [1, 20]: 12 ± 3.9 nM
EC50 [2, 21]: ≤ 5.3 nM
EC50 [2, 22]: 3.1 ± 2.2 nM
SI (IIIB) [2]: >15,094
EC50 [3, 23]: 39 ± 9.7 nM
EC50 [4, 24]: 1230 ± 556 nM
EC50 [5, 25]: 104 ± 17 nM
IC50 [6]: 34 ± 2.4 nM
EC50 [7, 26]: > 48400 nM
EC50 [8, 27]: 1520 ± 556 nM
EC50 [9, 28]: 13 ± 3.4 nM
CC50 ([10]; human): > 48000 nM
CC50 [11]: > 45000 nM

Cc1cc(-c2ccc(C#N)cc2)cc(C)c1Nc1nc(Nc2ccc(C#N)cc2)ncc1Cl [B11, 4′-((5-Chloro-2-((4-cyanophenyl)amino)pyrimidin-4-yl)amino)-3′,5′-dimethyl-[1,1′-biphenyl]-4-carbonitrile]
EC50 [1, 20]: 4.4 ± 1.1 nM
EC50 [2, 21]: ≤ 5.3 nM
EC50 [2, 22]: 5.3 ± 1.8 nM
SI (IIIB) [2]: 47,357
EC50 [3, 23]: 5.5 ± 1.8 nM
EC50 [4, 24]: 164 ± 71 nM
EC50 [5, 25]: 9.8 ± 3.3 nM
IC50 [6]: 53 nM
EC50 [7, 26]: 102 ± 24 nM
EC50 [8, 27]: 33 ± 6.7 nM
EC50 [9, 28]: 12 ± 6.9 nM

COc1ccc2c(c1)[C@]13CCCC[C@@H]1[C@H](C2)N(C)CC3 [Dextromethorphan, reference compound]
IC50 [12]: 224 nM

O=C1Nc2ccc(Cl)cc2[C@@](C#CC2CC2)(C(F)(F)F)O1 [EFV, reference compound]
EC50 [1, 29]: 60 ± 19 nM
EC50 [2, 22]: 3.8 ± 1 nM
SI (IIIB) [2]: >1618
EC50 [3, 30]: 24 ± 9.5 nM
EC50 [4, 31]: 181 ± 89 nM
EC50 [5, 32]: 6.3 ± 2.5 nM
EC50 [7, 33]: 314 ± 146 nM
EC50 [8, 34]: 244 ± 95 nM
EC50 [9, 35]: 5.4 ± 1.6 nM
CC50 [10, 36]: > 6300 nM

Cc1ccnc2c1NC(=O)c1cccnc1N2C1CC1 [NVP, reference compound]
EC50 [1, 29]: 5860 ± 2780 nM
EC50 [2, 22]: 188 ± 68 nM
EC50 [3, 30]: 1800 ± 1430 nM
EC50 [4, 31]: > 15000 nM
EC50 [5, 32]: 9010 ± 2630 nM
EC50 [7, 33]: > 15000 nM
EC50 [8, 34]: > 15000 nM
EC50 [9, 35]: 143 ± 38 nM
CC50 [10, 36]: > 15000 nM

Cc1cc(/C=C/C#N)cc(C)c1Nc1ccnc(Nc2ccc(C#N)cc2)n1 [RPV · HCl, rilpivirine HCl]
F (oral bioavailability) [13]: 32%

Cc1cc(/C=C/C#N)cc(C)c1Nc1ccnc(Nc2ccc(C#N)cc2)n1 [RPV, rilpivirine]
CLint(liver) [14]: 97.6 mL/min/kg
CLint(mic) [14]: 108.4 µL/min/mg
t1/2 [14]: 12.8 min
CC50 ([15]; introduction): ~5000 nM
EC50 [16]: 1 nM

Cc1cc(-c2ccc(C#N)cc2)cc(C)c1Nc1ccnc(Nc2ccc(C#N)cc2)n1 [compound 3]
EC50 [16]: 1 nM
SI [16]: 2,059

N#Cc1ccc(Nc2nccc(Nc3c(F)cc(-c4ccc(C#N)cc4)cc3F)n2)cc1 [compound 4]
CC50 [15, 37]: > 294000 nM
EC50 [16]: 1.3 nM
SI [16]: > 238,095

CN(c1ccnc(Nc2ccc(C#N)cc2)n1)c1c(F)cc(-c2ccc(C#N)cc2)cc1F [compound 5]
CC50 [15, 37]: 148000 nM
EC50 [16]: 6.2 nM
SI [16]: 24,067

Cc1cnc(Nc2ccc(C#N)cc2)nc1Nc1c(F)cc(-c2ccc(C#N)cc2)cc1F [compound 6, reference compound]
EC50 [1, 20]: 5.4 ± 1.8 nM
EC50 [2, 21]: 1.4 ± 0.3 nM
SI (IIIB) [2]: >208,333
EC50 [3, 23]: 16 ± 5.3 nM
EC50 [4, 24]: > 2000 nM
EC50 [5, 25]: 11 ± 1.9 nM
EC50 [7, 26]: > 2000 nM
EC50 [17]: > 2000 nM
EC50 [8, 27]: > 2000 nM
EC50 [9, 28]: 8.3 ± 1.5 nM
CC50 [11]: > 285000 nM
CC50 [15, 37]: > 285000 nM
EC50 [18]: > 2000 nM
EC50 [19]: > 2000 nM
EC50 [16]: 1.4 nM
SI [16]: > 208,333
